Measured values published in patent publication US11072618B2, “Compounds, compositions and methods” (Denali Therapeutics Inc., priority 2016, dated 2021).

Target: T1, GST-human receptor interacting protein kinase 1 fusion (8-327) enzyme (Homo sapiens, UniProt Q13546)
T1 sequence (Q13546 8-327): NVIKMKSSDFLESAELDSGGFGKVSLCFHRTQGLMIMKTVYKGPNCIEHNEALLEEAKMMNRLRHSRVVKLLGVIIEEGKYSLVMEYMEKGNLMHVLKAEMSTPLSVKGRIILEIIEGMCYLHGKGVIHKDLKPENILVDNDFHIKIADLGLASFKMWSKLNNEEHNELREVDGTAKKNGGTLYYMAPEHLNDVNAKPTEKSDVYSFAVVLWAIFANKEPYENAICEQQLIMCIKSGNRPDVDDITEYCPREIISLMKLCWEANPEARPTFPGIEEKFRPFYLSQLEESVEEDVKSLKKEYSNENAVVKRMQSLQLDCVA
Assay: Fluorescent Polarization Binding (FP Binding) assay, receptor interacting protein kinase 1
Conditions: 10 nM enzyme, 5 nM fluorescent-labeled ligand, RT 30 min, mean of a minimum of two independent experiments
Experimental: Fluorescent Polarization Binding (FP Binding) assay (Berger S. B. et al. (2015) Cell Death Discovery, 1: 15009; Maki J. L. et al. (2012) Anal Biochem., 427(2): 164-174) was performed in polystyrene low volume 384-well black plate, at Room Temperature (RT) in a final volume of 10.1 μL/well using 10 nM of GST-human receptor interacting protein kinase 1 fusion (8-327) enzyme and 5 nM of fluorescent-labeled ligand (14-(2-{[3-({2-{[4-(cyanomethyl)phenyl]amino}-6-[(5-cyclopropyl-1H-pyrazol-3-yl)amino]-4-pyrimidinyl}amino) propyl]amino}-2-oxoethyl)-16,16,18,18-tetramethyl-6,7,7a,8a,9,10,16,18-octahydrobenzo[2″,3″]indolizino[8″,7″:5′,6′]pyrano[3′,2′:3,4]pyrido[1,2-a]indol-5-ium-2-sulfonate.
Test compounds were serially diluted in DMSO at 100 fold final concentrations in the assay (1% DMSO final). In each well of a 384-well Plate were dispensed 0.1 μL of compound solution (or DMSO for controls) followed by 5 μL of GST-human receptor interacting protein kinase 1 fusion (8-327) enzyme at twice the final concentrations in assay buffer (50 mM HEPES pH 7.5, 10 mM NaCl, 50 mM MgCl2, 0.02% CHAPS, 0.5 mM DTT and 0.01% Pluronic F127). For negative control the enzyme addition was replaced by assay buffer only.
After addition of 5 μL of fluorescent-labeled ligand at twice the final concentrations in assay buffer, the plate was incubated at RT for 30 min. At the end, the binding was measured as FP value with the Envision (PerkinElmer) plate reader using filter for an excitation λ=531 nm FP and an emission λ=595 nm FP (S & P-pol).
Test compound inhibition was expressed as percent inhibition of internal assay controls. For concentration response curves, normalized data is fit and IC50 determined using XL-fit (IDBS) for Excel. IC50 were averaged to determine a mean value, for a minimum of two independent experiments.
Receptor interacting protein kinase 1 activity of exemplary compounds was determined according to the above general procedures.

Row | IC50 | SMILES
1 | < 1000 nM | CCCC1(C)CN2CCC(c3cccc(F)c3)N2C1=O (centres unmarked) [Compound 16]
2 | < 1000 nM | CC1(CC(F)(F)F)CN2CCC(c3cncc(F)c3)N2C1=O (centres unmarked) [Compound 50]
3 | < 1000 nM | CCC1(C)CN2CCC(c3ccc(F)c(F)c3)N2C1=O (centres unmarked) [Compound 10]
4 | < 1000 nM | CC1(C)CN2CCC(c3cccc(F)c3)N2C1=O (single isomer, unassigned) [Compound 3]
5 | 1000 to 30000 nM | O=C1N2C(c3cncc(F)c3)CCN2CC1(CC(F)(F)F)C(F)F (centres unmarked) [Compound 48]
6 | < 1000 nM | CCC1(C)CN2CCC(c3cc(F)cc(F)c3)N2C1=O (centres unmarked) [Compound 21]
7 | < 1000 nM | CC1(CC#N)CN2CCC(c3cccc(F)c3)N2C1=O (centres unmarked) [Compound 28]
8 | < 1000 nM | CCC1(C)CN2CCC(c3cncc(F)c3)N2C1=O (centres unmarked) [Compound 25]
9 | < 1000 nM | CC(F)(F)C1(C)CN2CCC(c3cccc(F)c3)N2C1=O (centres unmarked) [Compound 13]
10 | < 1000 nM | CC(F)(F)C1(C)CN2CCC(c3cc(F)cc(C#N)c3)N2C1=O (centres unmarked) [Compound 42]
11 | < 1000 nM | CCC1(C)CN2CCC(c3cc(F)cc(C#N)c3)N2C1=O (centres unmarked) [Compound 23]
12 | < 1000 nM | CC1(C)CC2(CN3CCC(c4cccc(F)c4)N3C2=O)C1 (centres unmarked) [Compound 12]
13 | < 1000 nM | CC1(CC2CC2)CN2CCC(c3cccc(F)c3)N2C1=O (centres unmarked) [Compound 17]
14 | < 1000 nM | CCC1(C)CN2CCC(c3cc(F)cc(F)c3)N2C1=O (single isomer, unassigned) [Compound 22]
15 | < 1000 nM | CC1(C(F)F)CN2CCC(c3cncc(F)c3)N2C1=O (single isomer, unassigned) [Compound 45]
16 | < 1000 nM | CCC1(CF)CN2CCC(c3cccc(F)c3)N2C1=O (centres unmarked) [Compound 30]
17 | 1000 to 30000 nM | CC1(C)CCN2CCC(c3ccccc3)N2C1=O (centres unmarked) [Compound 8]
18 | 1000 to 30000 nM | CCCC1(C)CN2CCC(c3cccc(F)c3)N2C1=O (centres unmarked) [Compound 15]
19 | < 1000 nM | CC(F)(F)C1(C)CN2CCC(c3cncc(C#N)c3)N2C1=O (centres unmarked) [Compound 37]
20 | < 1000 nM | CCC1(C(F)F)CN2CCC(c3cccc(F)c3)N2C1=O (centres unmarked) [Compound 20]
21 | < 1000 nM | CCC1(C(F)F)CN2CCC(c3cc(F)cc(C#N)c3)N2C1=O (centres unmarked) [Compound 31]
22 | 1000 to 30000 nM | O=C1N2C(c3cncc(F)c3)CCN2CC1(CC1CC1)C(F)F (centres unmarked) [Compound 53]
23 | 1000 to 30000 nM | CC(F)(F)C1(C)CN2CCC(c3cncc(C#N)c3)N2C1=O (single isomer, unassigned) [Compound 36]
24 | < 1000 nM | CCC1(CCl)CN2CCC(c3cccc(F)c3)N2C1=O (centres unmarked) [Compound 29]
25 | < 1000 nM | CCC1(C(F)F)C[C@@H]2CCC(c3cccc(F)c3)N2C1=O (single isomer, unassigned) [Compound 57]

Row | IC50 | SMILES
26 | 1000 to 30000 nM | CCC1(C(F)F)CN2CCC(c3cncc(F)c3)N2C1=O (centres unmarked) [Compound 34]
27 | < 1000 nM | CC1(C)CN2CC[C@@H](c3ccccc3)N2C1=O [Compound 1]
28 | 1000 to 30000 nM | CC1(C(F)F)CN2CCC(c3cc(F)cc(C#N)c3)N2C1=O (centres unmarked) [Compound 41]
29 | < 1000 nM | CCC1(C(F)F)CN2CCC(c3cncc(F)c3)N2C1=O (centres unmarked) [Compound 33]
30 | 1000 to 30000 nM | CC1(CC(F)(F)F)CN2CCC(c3cncc(F)c3)N2C1=O (centres unmarked) [Compound 51]
31 | < 1000 nM | CC1(CC2CC2)CN2CCC(c3cc(F)cc(C#N)c3)N2C1=O (centres unmarked) [Compound 35]
32 | < 1000 nM | CC1(CC(F)F)CN2CCC(c3cccc(F)c3)N2C1=O (centres unmarked) [Compound 27]
33 | < 1000 nM | CCC1(C(F)F)C[C@H]2CCC(c3cccc(F)c3)N2C1=O (single isomer, unassigned) [Compound 55]
34 | < 1000 nM | CCCC1(C(F)F)CN2CCC(c3cncc(C#N)c3)N2C1=O (centres unmarked) [Compound 54]
35 | 1000 to 30000 nM | CCC1(C)CN2CCC(c3cncc(F)c3)N2C1=O (centres unmarked) [Compound 26]
36 | 1000 to 30000 nM | CC(F)(F)C1(C)CN2CCC(c3cncc(F)c3)N2C1=O (centres unmarked) [Compound 46]
37 | < 1000 nM | CC1(C)CN2CCC(c3cc(F)cc(C#N)c3)N2C1=O (centres unmarked) [Compound 5]
38 | < 1000 nM | CCC1(C(F)F)CN2CCC(c3cncc(C#N)c3)N2C1=O (centres unmarked) [Compound 19]
39 | 1000 to 30000 nM | CC1(C(F)F)CN2CCC(c3cncc(C#N)c3)N2C1=O (single isomer, unassigned) [Compound 38]
40 | 1000 to 30000 nM | CC1(C)CN2CCC(c3cccc(C#N)c3)N2C1=O (centres unmarked) [Compound 4]
41 | < 1000 nM | CC(F)(F)C1(C)CN2CCC(c3cncc(F)c3)N2C1=O (centres unmarked) [Compound 47]
42 | 1000 to 30000 nM | CC(F)(F)C1(C)CN2CCC(c3cc(F)cc(C#N)c3)N2C1=O (centres unmarked) [Compound 43]
43 | < 1000 nM | CCC1(C)CN2CCC(c3cccc(F)c3)N2C1=O (centres unmarked) [Compound 7]
44 | < 1000 nM | C=CCC1(C)CN2CCC(c3cccc(F)c3)N2C1=O (centres unmarked) [Compound 14]
45 | < 1000 nM | CC1(C(F)F)CN2CCC(c3cc(F)cc(C#N)c3)N2C1=O (centres unmarked) [Compound 40]
46 | < 1000 nM | O=C1N2C(c3cncc(F)c3)CCN2CC1(CC1CC1)C(F)F (centres unmarked) [Compound 52]
47 | < 1000 nM | CCC1(C(F)F)CN2CCC(c3cncc(Br)c3)N2C1=O (centres unmarked) [Compound 18]
48 | 1000 to 30000 nM | CC1(C)CN2CCC(c3ccc(F)c(F)c3)N2C1=O (centres unmarked) [Compound 9]
49 | 1000 to 30000 nM | CCC1(CC)CN2CCC(c3ccc(F)cc3)N2C1=O (centres unmarked) [Compound 2]
50 | < 1000 nM | CC1(C(F)F)CN2CCC(c3cncc(C#N)c3)N2C1=O (single isomer, unassigned) [Compound 39]
